# Measured values reported in PubChem BioAssay (NCI).
# Where “and” joins values, the source holds several entries; their conditions need not be identical. Identical values can stand only once.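 Protocol summary: plate cells (96-well), add compound at 5 concentrations, incubate 48 h, interpolate endpoints linearly. GI50 is the concentration that inhibits growth by half. TGI is the concentration that stops growth completely.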
# What was measured:
# Test in all cases: NCI-60 cell line screen, 48 h
# A498 renal = test system: A498 renal
# A549 NSCLC = test system: A549 NSCLC
# DU-145 prostate = test system: DU-145 prostate
# HOP-92 NSCLC = test system: HOP-92 NSCLC
# HT29 colon = test system: HT29 colon
# LOX IMVI melanoma = test system: LOX IMVI melanoma
# NCI-H226 lung = test system: NCI-H226 lung
# NCI-H522 lung = test system: NCI-H522 lung
# SNB-19 CNS = test system: SNB-19 CNS
# TK-10 renal = test system: TK-10 renal
Structure (SMILES),GI50 (A498 renal) [µM],TGI (A498 renal),GI50 (A549 NSCLC),TGI (A549 NSCLC),GI50 (DU-145 prostate) [µM],TGI (DU-145 prostate),GI50 (HOP-92 NSCLC) [µM],TGI (HOP-92 NSCLC),GI50 (HT29 colon) [µM],TGI (HT29 colon),GI50 (LOX IMVI melanoma) [µM],TGI (LOX IMVI melanoma),GI50 (NCI-H226 lung) [µM],TGI (NCI-H226 lung),GI50 (NCI-H522 lung) [µM],TGI (NCI-H522 lung),GI50 (SNB-19 CNS) [µM],TGI (SNB-19 CNS),GI50 (TK-10 renal) [µM],TGI (TK-10 renal)
CCn1c(-c2nonc2N)nc2cnc(Oc3cccc(NC(=O)c4ccc(OCCN5CCOCC5)cc4)c3)cc21,1.05,> 23.7 µM,2.52 µM,> 25 µM,5.43,> 25 µM,0.0025,> 25 µM,10.7,> 25 µM,3.1,> 25 µM,1.24,> 25 µM,1.41,> 25 µM,12.1,> 25 µM,0.564,13.7 µM
COc1cccc2c1C(=O)c1c(O)c3c(c(O)c1C2=O)C[C@@](O)(/C(C)=N/NC(=O)c1cccc([N+](=O)[O-])c1)C[C@@H]3OC1CC(N)C(O)C(C)O1 (stereo partly specified),0.564,2.23 µM,0.362 µM,11.8 µM,0.272,1.81 µM,0.201,4.71 µM,0.238,11.2 µM,0.146,15.4 µM,0.16,0.714 µM,0.494,5.96 µM,0.291,12 µM,0.896,10.2 µM
C=CC(=O)N1CCN([C@@H](CC2CC2)c2ccc([C@H](C)Nc3ncc4c(n3)N(CC)C(=O)OC4)cc2)CC1,11.2,23.6 µM,11.4 µM,28.7 µM,12.7,25.4 µM,1.47,8.06 µM,17.5,50.7 µM,11.1,26.6 µM,14.1,34.7 µM,10.2,26.1 µM,14.4,27.8 µM,9.02,23.1 µM
COc1ccc2c(c1[N+](=O)[O-])CC[C@@H]1[C@@H]2CC[C@]2(C)C(=O)CC[C@@H]12,352,> 25 µM and 791 µM,> 751 µM,> 1000 µM,> 939,> 1000 µM,289,–,> 1000,> 1000 µM,434,> 1000 µM,494,–,590,> 957 µM,457,–,577,> 1000 µM
CC(C)OC(=O)Nc1c([N+](=O)[O-])cc(C(F)(F)F)cc1[N+](=O)[O-],–,> 100 µM,–,> 100 µM,–,> 100 µM,–,> 91.8 µM,–,> 100 µM,–,> 100 µM,–,> 100 µM,–,> 100 µM,–,> 100 µM,–,> 100 µM
Clc1ccc(NCNC2Nc3ccccc3N2)cc1Cl,–,> 100 µM,–,> 100 µM,–,> 100 µM,–,> 100 µM,–,64 µM,–,> 100 µM,–,> 100 µM,–,56.2 µM,–,> 100 µM,–,> 100 µM
CCN(CC)CCN1C(=O)C2C3C(C)=CC(OC(C)=O)(CC3C)C2C1=O (stereo unspecified),> 100,> 100 µM,> 100 µM,> 100 µM,> 100,> 100 µM,> 100,> 100 µM,> 100,> 100 µM,> 100,> 100 µM,> 100,> 100 µM,> 100,> 100 µM,> 100,> 100 µM,> 100,> 100 µM
Cc1cc[c]([Sb]2[O]C(CO)C(C(O)C(O)C(=O)O)[O]2)cc1 (stereo unspecified),32.3,99.7 µM,35.3 µM,> 100 µM,38.5,> 100 µM,> 100,> 100 µM,46.4,> 100 µM,39.9,> 100 µM,39.9,> 100 µM,42.7,> 100 µM,60.6,> 100 µM,–,0.58 µM
C=C1C(=O)O[C@@H]2C[C@@]3(C)CCC[C@H](C)C3=C[C@H]12 (tested in a mixture with another compound),–,3.58 µM,–,18.6 µM,–,8.67 µM,–,3.48 µM,–,5.34 µM,–,11.7 µM,–,16.6 µM,–,2.94 µM,–,22.4 µM,–,6.92 µM
CCOc1cc(/C=C/C(=O)CC(=O)/C=C/c2ccc(OC(=O)CNc3nc4ccc(OC)cc4s3)c(OCC)c2)ccc1OC(=O)CNc1nc2ccc(OC)cc2s1,13.4,26.2 µM,4.94 µM,31 µM,3.17,12.3 µM,18,56.3 µM,2.28,4.8 µM,3.28,12.1 µM,12.9,34.1 µM,12.6,34.4 µM,6.02,19.4 µM,11.4,27.5 µM
N#Cc1nc2cc(Cl)c(Cl)cc2nc1-c1ccc(Cl)cc1,21.5,60.7 µM,13.8 µM,> 46.6 µM,49.6,> 100 µM,27.8,> 100 µM,> 100,> 100 µM,71,> 100 µM,21.7,> 61.6 µM,51.5,> 100 µM,> 43.4,> 60.6 µM,21.3,46.3 µM
CN(C)CCN1C(=O)c2cccc3cc(N)cc(c23)C1=O,–,13.8 µM and 8.93 µM,0.912 µM and 1.51 µM,> 21.5 µM and 9.09 µM,1.59,29.8 µM and 12.9 µM,2.28,15.4 µM and 13.1 µM,2.75,12 µM and 14.1 µM,2.18,> 31.3 µM and 7.29 µM,1.51,5.34 µM and 8.51 µM,3.21,11.6 µM and 10.3 µM,4.7,> 88.9 µM and 18.8 µM,3.27,24.9 µM and 14.4 µM
O=c1[nH]c(=O)n(Cc2ccc(C34CC5CC(CC(C5)C3)C4)c(O)c2)cc1F,10.2,22.1 µM,–,–,16.7,32.4 µM,13.5,26.4 µM,14.2,37.2 µM,13.4,27.2 µM,16.7,32.6 µM,13.1,31.9 µM,15.6,34 µM,15.4,33.7 µM
CCCCCCCCCCCC(c1ccccc1)[N+](C)(C)C (stereo unspecified),1.99,7.24 µM,1.46 µM,3.97 µM,1.56,7.51 µM,1.06,2.86 µM,0.296,2.45 µM,0.425,2.5 µM,1.97,7.22 µM,0.294,1.97 µM,–,–,0.788,2.49 µM
